Results on 23 molecules are retold here after ChEMBL document CHEMBL1154985, “Discovery of a novel series of potent S1P1 agonists” (Bioorg Med Chem Lett, 2010).

A short description of series [1]: Intrinsic clearance in human liver microsomes at 3 uM by LC/MS-MS analysis. The series is classed as ADME, Microsome.
The nature of series [2]: Apparent permeability across human Caco-2 cells by LC/MS-MS analysis. The series is classed as ADME, cell-based.
Series [3] can be described thus: Intrinsic clearance in rat liver microsomes at 3 uM by LC/MS-MS analysis. The series is classed as ADME, Microsome. Background: Microsomes from liver hold many membrane-bound enzymes, among them those of drug oxidation.
The target of series [4] is Sphingosine 1-phosphate receptor 5 (Homo sapiens, UniProt Q9H228). As to the kind of experiment: Agonist activity at S1P5 receptor expressed in CHO cells after 60 mins by [35S]-GTPgammaS binding assay. The class given is functional, cell-based.
Sequence of Sphingosine 1-phosphate receptor 5 (Q9H228 whole entry): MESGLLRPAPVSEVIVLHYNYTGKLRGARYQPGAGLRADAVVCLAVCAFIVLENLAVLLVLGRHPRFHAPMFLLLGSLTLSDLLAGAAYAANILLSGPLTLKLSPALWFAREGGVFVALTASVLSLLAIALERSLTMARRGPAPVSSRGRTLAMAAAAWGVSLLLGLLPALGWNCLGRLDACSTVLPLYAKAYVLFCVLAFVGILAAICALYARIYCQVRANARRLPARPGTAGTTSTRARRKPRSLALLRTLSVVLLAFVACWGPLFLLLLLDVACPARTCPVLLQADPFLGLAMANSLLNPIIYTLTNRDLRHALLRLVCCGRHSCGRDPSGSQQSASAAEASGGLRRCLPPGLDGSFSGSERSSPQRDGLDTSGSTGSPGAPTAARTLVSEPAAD
Series [5] in a line: Solubility in PBS by nephelometry. The series is classed as physicochemical.
Series [6] concerns the target T1, Sphingosine 1-phosphate receptor 1 (Homo sapiens, UniProt P21453). As to the kind of experiment: Agonist activity at S1P1 receptor expressed in CHO cells after 60 mins by [35S]-GTPgammaS binding assay. The class given is functional, cell-based. (In general: GTPγS is a poorly hydrolysed GTP analogue; its binding reports G protein activation.)
A short description of series [7]: Clearance in mouse. The series is classed as ADME, organism-based. The conditions noted are these: in vivo.
The nature of series [8]: Lipophilicity, log P of the compound. The series is classed as physicochemical. The following applies: octanol/water.
In series [9] the target is Sphingosine 1-phosphate receptor 3 (Homo sapiens, UniProt Q99500). The series is described as follows: Agonist activity at S1P3 receptor expressed in CHO cells after 60 mins by [35S]-GTPgammaS binding assay. The class given is functional, cell-based.
Sequence of Sphingosine 1-phosphate receptor 3 (Q99500 whole entry): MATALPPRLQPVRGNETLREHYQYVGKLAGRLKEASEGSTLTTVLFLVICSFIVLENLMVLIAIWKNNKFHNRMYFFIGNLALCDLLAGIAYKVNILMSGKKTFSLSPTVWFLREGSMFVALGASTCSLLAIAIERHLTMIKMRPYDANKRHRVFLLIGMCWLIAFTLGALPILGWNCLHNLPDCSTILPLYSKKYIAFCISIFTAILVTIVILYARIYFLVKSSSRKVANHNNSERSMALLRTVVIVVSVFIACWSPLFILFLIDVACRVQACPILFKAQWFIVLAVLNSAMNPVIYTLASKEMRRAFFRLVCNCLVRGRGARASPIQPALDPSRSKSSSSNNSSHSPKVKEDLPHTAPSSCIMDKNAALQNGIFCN
Series [10] has as its system Mus musculus. As to the kind of experiment: Reduction of S1P1-mediated lymphopenia in mouse assessed as blood lymphocyte depletion at 30 mg/kg, po after 4 hrs. The arrangement: scale not given: the % may be the effect or the level left. The series is classed as functional.
The subject of series [11] is Mus musculus. As to the kind of experiment: Reduction of lymphopenia in mouse assessed as effect on erythrocytes at 30 mg/kg, po after 4 hrs. The class given is functional, organism-based. The arrangement: dose 30 mg/kg.
Series [12] has as its target T1, Sphingosine 1-phosphate receptor 1. As to the kind of experiment: Agonist activity at S1P1 receptor expressed in human U20S cells assessed as receptor internalization by green fluorescent protein reporter gene assay. The class given is functional, cell-based, U2OS.
Series [13] has as its system Mus musculus. The series is described as follows: Reduction of lymphopenia in mouse assessed as effect on platelets at 30 mg/kg, po after 4 hrs. The series is classed as functional, organism-based. The arrangement: dose 30 mg/kg.
Series [14] can be described thus: Lipophilicity, log D at pH 7.4. The class given is physicochemical. The conditions noted are these: buffer.

In brackets after ≈: the same amount, converted by molar mass. Activity calls are given as the source filed them. The calls are words filed in the database; no cut-off is given here.

T1 sequence (P21453 whole entry): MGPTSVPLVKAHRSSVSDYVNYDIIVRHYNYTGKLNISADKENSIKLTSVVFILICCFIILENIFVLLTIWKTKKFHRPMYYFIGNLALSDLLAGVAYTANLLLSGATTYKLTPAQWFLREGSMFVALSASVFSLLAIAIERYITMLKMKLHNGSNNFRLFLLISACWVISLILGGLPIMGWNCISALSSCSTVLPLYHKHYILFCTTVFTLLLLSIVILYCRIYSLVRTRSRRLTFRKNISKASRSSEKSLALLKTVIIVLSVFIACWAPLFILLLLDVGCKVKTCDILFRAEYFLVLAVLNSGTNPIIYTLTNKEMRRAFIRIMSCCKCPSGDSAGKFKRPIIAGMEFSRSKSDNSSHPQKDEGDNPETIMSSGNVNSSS

As to `Cc1cc(S(=O)(=O)NCCC(=O)O)ccc1NC(=O)c1cc(N(CC2CC2)C2CCCCC2)ncn1`, the microsomal CLint at 3 µM in series [1] and in [3] was 25 µL/min/mg each time. For the same molecule, the Papp in series [2] is 2 ×10⁻⁶ cm/s. In series [4], this molecule displayed an EC50 of 114 nM. Moreover, the kinetic solubility in series [5] is greater than 51 µg/mL.

In series [6], `COc1ccc(NC(=O)c2cc(NC3CCCCC3)ncn2)cc1` gave an EC50 greater than 20000 nM.

For `Cc1cc(O)ccc1NC(=O)c1cc(NC2CCCCC2)ncn1`, the microsomal CLint at 3 µM in series [1] turned out to be 2 µL/min/mg; in series [3] it was 18 µL/min/mg. This molecule also showed a clearance in [7] of 80.8 mL/min/kg. The Papp in series [2] is 21.8 ×10⁻⁶ cm/s. The molecule also showed a logP in series [8] of 4.1. Also, the figures for the EC50 in series [4] and in series [9] were 258 nM and greater than 30000 nM, respectively. Also, the kinetic solubility in [5] is greater than 32 µg/mL.

For `CCCN(CCC)c1cc(C(=O)Nc2ccc(O)cc2)ncn1`, the microsomal CLint at 3 µM in [1] stood at 4 µL/min/mg; in [3] it was 7 µL/min/mg. Further, the Papp in series [2] came to 21.4 ×10⁻⁶ cm/s. For the same molecule, the kinetic solubility in series [5] stood at 16 µg/mL (≈ 50.9 µM). Further, the EC50 in [6] worked out at 375 nM.

The molecule `Cc1cc(O)ccc1NC(=O)c1cc(NC(C)(C)C)ncn1` yielded an EC50 in [6] greater than 20000 nM.

For the molecule `Cc1cc(O)ccc1NC(=O)c1cc(NC2CC2)ncn1`, the EC50 in series [6] was greater than 20000 nM.

In [6], `O=C(Nc1ccc2[nH]ccc2c1)c1cc(NC2CCCCC2)ncn1` came in with an EC50 of 12100 nM.

Consider `Cc1cc2[nH]ncc2cc1NC(=O)c1cc(N(CC2CC2)C2CCCCC2)ncn1`, for which the microsomal CLint at 3 µM is less than 10 µL/min/mg in [1] and 26 µL/min/mg in series [3]. Further, the Papp in series [2] was 0.1 ×10⁻⁶ cm/s. For the same molecule, the logP in series [8] was 6.1. This molecule also returned a solubility (kinetic) in [5] of 5 µg/mL (≈ 12.4 µM).

Take `Cc1cc(S(N)(=O)=O)ccc1NC(=O)c1cc(NC2CCCCC2)ncn1`: the microsomal CLint at 3 µM worked out at 43 µL/min/mg in series [1] and 15 µL/min/mg in [3]. The apparent permeability (Papp) in series [2] turned out to be 12.5 ×10⁻⁶ cm/s. In [8], this molecule registered a logP of 3.6. The molecule further came in with a kinetic solubility in series [5] of 5 µg/mL (≈ 12.8 µM). In series [9], this molecule showed an EC50 greater than 30000 nM.

Take `NS(=O)(=O)c1ccc(NC(=O)c2cc(NC3CCCCC3)ncn2)cc1`: the clearance in series [7] was 5 mL/min/kg.

On to `CCCN(CC1CC1)c1cc(C(=O)Nc2ccc3[nH]ncc3c2)ncn1`, for which the Activity in series [10] was found to be 72%. Also, the microsomal CLint at 3 µM in [1] is 17 µL/min/mg; in series [3], 57 µL/min/mg. Moreover, in [2], the Papp was found to be 8.5 ×10⁻⁶ cm/s. Besides, the result in series [11] and in series [13] was inactive. This molecule also registered a logP in series [8] of 4.6. The EC50 in series [12] turned out to be 12 nM; in [4], 142 nM. Further, the solubility (kinetic) in [5] came to 11 µg/mL (≈ 31.4 µM).

In turn, `O=C(Nc1ccc(O)cc1)c1cc(NC2CCCCC2)ncn1` had an EC50 in [9] greater than 30000 nM.

For `Cc1cc(O)ccc1NC(=O)c1cc(N(CC2CC2)C2CCCCC2)ncn1`, the values for the microsomal CLint at 3 µM in series [1] and in series [3] were 22 µL/min/mg and 52 µL/min/mg, respectively. The molecule also yielded a logP in series [8] of 7.4. Besides, the EC50 was 191 nM in series [4] and greater than 30000 nM in [9]. For the same molecule, the kinetic solubility in series [5] was 8 µg/mL (≈ 21 µM).

`CN(c1cc(C(=O)Nc2ccc3[nH]nnc3c2)ncn1)C1CCCCC1`: the EC50 in [6] came to 7300 nM.

For the molecule `CCN(c1cc(C(=O)Nc2ccc(O)cc2C)ncn1)C1CCCCC1`, a half-maximal response in series [6] (EC50) required 405 nM.

Take `CN(c1ccccc1)c1cc(C(=O)Nc2ccc(O)cc2)ncn1`: in series [6], the EC50 is greater than 20000 nM.

`Cc1cc(CN2CC(C(=O)O)C2)ccc1NC(=O)c1cc(N(CC2CC2)C2CCCCC2)ncn1`: the microsomal CLint at 3 µM in series [1] and in series [3] was less than 10 µL/min/mg each time. In [2], the Papp is 2.4 ×10⁻⁶ cm/s. The molecule further gave a logD in series [14] greater than 2.7. For the same molecule, the EC50 in [12] came to 3 nM; in series [4] it was 0.6 nM; in series [9] it was 236 nM; in series [6], 3 nM. The solubility (kinetic) in series [5] came out at 22 µg/mL (≈ 46.1 µM).

In series [6], `O=C(Nc1ccc(F)cc1F)c1cc(NC2CCCCC2)ncn1` registered an EC50 greater than 20000 nM.

As to `CC(=O)Nc1ccc(NC(=O)c2cc(NC3CCCCC3)ncn2)cc1`, the EC50 in series [6] is greater than 20000 nM.

In the case of `CNS(=O)(=O)c1ccc(NC(=O)c2cc(N(CC3CC3)C3CCCCC3)ncn2)c(C)c1`, it took 6 nM to reach a half-maximal effect in series [6] (EC50).

In the case of `O=C(O)CCNCc1ccc(NC(=O)c2cc(N(CC3CC3)C3CCCCC3)ncn2)cc1`, the microsomal CLint at 3 µM in series [1] and in series [3] was less than 10 µL/min/mg in each case. Moreover, in series [2], the Papp stood at 0.8 ×10⁻⁶ cm/s. Further, the EC50 in series [4] is 6.3 nM; in [9] it was 1090 nM. For the same molecule, the kinetic solubility in series [5] is greater than 45 µg/mL.

For the molecule `Cc1cc(S(N)(=O)=O)ccc1NC(=O)c1cc(N(CC2CC2)C2CCCCC2)ncn1`, the microsomal CLint at 3 µM is 130 µL/min/mg in series [1] and 14 µL/min/mg in series [3]. In addition, in series [8], the logP is 5.7. Moreover, the EC50 in [4] was 96 nM; in series [9] it was greater than 30000 nM; in series [6] it was 1.6 nM. In series [5], the kinetic solubility came out at 1 µg/mL (≈ 2.25 µM).

In series [6], `O=C(Nc1ccc(CO)cc1)c1cc(NC2CCCCC2)ncn1` gave an EC50 greater than 20000 nM.

As a reminder, the microsomal CLint is the rate of metabolic loss divided by the concentration. The Papp is a coefficient for how fast a substance crosses the barrier. The term EC50 denotes the concentration at which the effect is half-maximal. The solubility (kinetic) is solubility judged after dilution from a stock solution rather than from solid. Broadly, the clearance is a measure of how efficiently the substance is removed, as volume per time. A word on the logP: it is a log measure of how a compound divides between an organic and an aqueous phase. By logD is commonly meant the decadic logarithm of the distribution of all forms, ionised or not, between an organic phase and buffer at a given pH.
